Reference: patent publication US20230293479A1, “MEDICINAL COMPOUNDS AND NUTRITIONAL SUPPLEMENTS” (RECEPTOR HOLDINGS, INC., priority 2017, published 2023)

Legend:
[1] = Example 4: cannabis/SNAC oral rat pharmacokinetic (PK) study; format: in vivo, rats; settings: for Cmax increase over cannabis alone: oral gavage, 50 mg/kg cannabis extract with 500 mg/kg SNAC versus 25 mg/kg cannabis alone
Experimental: Example 4. Summary of cannabis/SNAC oral rat pharmacokinetic (PK) study.
Methods. Animals were dosed on Day 1 and a series of blood samples were collected over a period of 4 hours post dose for pharmacokinetic evaluation. Animals were euthanized following collection of their last blood sample.

[2] = system: study participants; assay: Example 1: onset and duration of action of orally administered cannabis/SNAC composition (self-reported euphoria/dysphoria, 200 mg SNAC); format: in vivo, human; settings: oral cannabinoid formulation, 200 mg SNAC
Experimental: Example 1. […] This study was designed to assess the utility of SNAC in enabling a rapid-acting oral form of cannabis.
Selection of Participants. Six study participants were recruited to ingest cannabis compositions and record the onset, duration, and intensity of cannabis-induced euphoria and/or dysphoria.
(§1) Formulations. The selected cannabis concentrate is commercially available and was provided to participants in an ethanol solution. The concentrate contains 8 mg THC per dose. It was selected because it contains a high percentage of THC, which provides a noticeable effect on user-reported “euphoria”.
(§2) Methods. For the Control experiment, each participant mixed the cannabis concentrate with 15 ml (one tablespoon) of aqueous ethanol, and immediately swallowed the mixture.
(§3) For both the Control experiment and the Test experiment, each participant recorded the time of dose administration, the time of onset of euphoria and/or dysphoria, and the observed level of euphoria and/or dysphoria in fifteen minute intervals for five hours following administration of the cannabis dose. Euphoria and dysphoria were reported using a scale value, in a range from 1-10.

[3] = system: study participants; assay: Example 2: onset and duration of action of orally administered cannabis/SNAC composition at a low SNAC dose (100 mg); format: in vivo, human; settings: oral cannabinoid formulation, 100 mg SNAC
Experimental: Example 2. […] This study was designed to assess the utility of SNAC in enabling a rapid-acting oral form of cannabis at a low dose.
Selection of Participants. Three study participants were recruited to ingest cannabis compositions and record the onset, duration, and intensity of cannabis-induced euphoria and/or dysphoria.
as §1, §2, §3

[4] = cited from earlier work

Row | SMILES | effect on cannabinoid absorption ([1]; administered to rats by oral gavage) | effect of the absorption enhancer on the cannabinoid duration of action [2] | effect of the absorption enhancer on the duration of action [3] | Cmax increase over cannabis alone ([1]; rats) [fold] | duration of appetite stimulant effect ([4]; after administration) [h] | onset of action ([4]; after oral administration) [h] | peak effect ([4]; after oral administration) [h] | administered dose reaching the systemic circulation ([4]; oral, first pass hepatic metabolism and high lipid solubility) | mean maximum concentration Cmax ([1]; rats, single oral gavage, cannabis extract (THC/CBD 1:1) with SNAC, range over Groups 3-5 (25/250, 25/500, 50/500 mg extract/kg and mg SNAC/kg)) [ng/mL] | AUC0-Tlast ([1]; rats, single oral gavage, cannabis extract with SNAC, range over Groups 3-5) [ng·h/mL] | time to reach the mean maximum plasma concentration (Tmax) ([1]; rats, single oral gavage, cannabis extract with SNAC, range over Groups 3-5, post dose) [min]
1 | O=C([O-])CCCCCCCNC(=O)c1ccccc1O.[Na+] [SNAC, sodium N-[8-(2-hydroxybenzoyl)amino] caprylate] | enhances cannabinoid absorption | no effect | no effect | – | – | – | – | – | – | – | –
2 | CCCCCc1cc(O)c2c(c1)OC(C)(C)[C@@H]1CCC(C)=C[C@@H]21 [THC, (−)-trans-delta-9-tetrahydrocannabinol] | – | – | – | 6.9 | ≥ 24 | 0.5 to 1 | 2 to 4 | 10-20% | – | – | –
3 | C=C(C)[C@@H]1CCC(C)=C[C@H]1c1c(O)cc(CCCCC)cc1O [CBD, cannabidiol] | – | – | – | 14.2 | – | – | – | – | 31.7 to 159.3 | 13.17 to 382.14 | 15 to 60
